Reference: patent US7332476B2, “Pyridyl substituted ketolide antibiotics” (Novartis AG, priority 2003, dated 2008)
In brackets after ≈: the same amount, converted by molar mass.

What was measured:
Assay in all cases: MIC, broth microdilution (NCCLS)
[1] = test system: Streptococcus pyogenes Stpy_8668; assay type: cell-based; parameters: MIC, strain ID G: unit not given beside the values; settings: for MIC: Table 7, Strain ID E (Table 6): S. pyogenes Stpy_8668
In short: (§1)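 Broth microdilution per NCCLS in cation-adjusted Mueller-Hinton broth, with 2-5% lysed horse blood added for S. pneumoniae. Inoculum 3×10^5–7×10^5 CFU/ml, 2-fold drug dilutions, 18-24 h at 35° C; S. pneumoniae under 5-10% CO2, others ambient air. MIC = lowest concentration preventing visible growth.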

[2] = test system: Staphylococcus aureus Stau_33591; assay type: cell-based; settings: strain ID B; broth microdilution; unit assumed
Procedure: (§2) Strains. The bacterial isolates listed in Table 8 were cultivated from −70° C. frozen stocks by two consecutive overnight passages (P1, P2) at 35° C. on 5% blood agar (Remel, Lenexa, Kans.). Chocolate agar (Remel) is used for Haemophilus influenzae. H. influenzae and Streptococcus pneumoniae are incubated in 5-10% CO2
(§3) Drug Stock Preparation. To determine the amount of solvent to be used to give the desired final concentration, the formula “weight obtained in mg/final concentration in mg/ml” will be used. It will give the amount of solvent in ml needed to be added to give the desired concentration. For example, if 2.5 mg/ml is the desired concentration and the weight of compound is 13.7 mg, then the amount of solvent to be added is […]. Methanol is used as the solvent to dissolve the test compounds. Further dilution of stock is done in sterile, deionized water. Drug stocks are kept frozen at −70° C., protected from light.
(§4) Susceptibility Testing. MICs are determined by the broth microdilution method in accordance with the NCCLS guidelines. In brief, organism suspensions are adjusted to a 0.5 McFarland standard to yield a final inoculum between 3×10^5 and 7×10^5 CFU/ml. Drug dilutions and inocula are made in sterile, cation adjusted Mueller-Hinton Broth (CAMHB) (Remel) for all but S. pneumoniae [CAMHB with 2-5% lysed horse blood (Remel)] and H. influenzae [Haemophilus Test Medium (Remel)]. An inoculum volume of 100 μl is added to wells containing 100 μl of broth with 2-fold serial dilutions of drug. All inoculated microdilution trays are incubated in ambient air at 35° C. for 18-24 hours, except for S. pneumoniae, and H. influenzae (both at 5-10% CO2).
(§5) Following appropriate incubation, the MIC is determined and the MIC is defined as the lowest concentration of the drug that prevented visible growth. […] Antibacterial activity of representative compounds of the invention were compared against telitromycin.

[3] = test system: Streptococcus pneumoniae Stpn_297-749; assay type: cell-based; parameters: MIC, strain ID N: unit not given here; settings: for MIC: Table 7, Strain ID G (Table 6): S. pneumoniae Stpn_297-749
In short: as §1

[4] = test system: Streptococcus pneumoniae Stpn_49619; assay type: cell-based; parameters: MIC, strain ID M: unit not given beside the values; settings: for MIC: Table 7, Strain ID F (Table 6): S. pneumoniae Stpn_49619
In short: as §1

[5] = test system: Enterococcus faecalis Enfa_29212; assay type: cell-based; settings: in µg/mL (unit assumed); for MIC: Table 7, Strain ID D (Table 6): E. faecalis Enfa_29212
In short: as §1

[6] = test system: Staphylococcus epidermidis Step_14990; assay type: cell-based; settings: in µg/mL (unit assumed); for MIC: Table 7, Strain ID B (Table 6): S. epidermidis Step_14990
In short: as §1

[7] = test system: S. pneumoniae Stpn_Erm 6849; assay type: cell-based, Streptococcus pneumoniae; settings: for MIC: Table 7, Strain ID I (Table 6): S. pneumoniae Stpn_Erm 6849, unit assumed
In short: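 Lowest drug concentration giving no visible growth after 18-24 hours at 35° C. under 5-10% CO2 was taken as MIC. Twofold serial dilutions in CAMHB plus 2-5% lysed horse blood, final inoculum 3×10^5–7×10^5 CFU/ml, per NCCLS microdilution.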

[8] = test system: Streptococcus pneumoniae Stpn_280-962; assay type: cell-based; parameters: MIC, strain ID O: unit not given beside the values; settings: for MIC: Table 7, Strain ID H (Table 6): S. pneumoniae Stpn_280-962
In short: as §1

[9] = test system: Streptococcus pneumoniae Stpn_Erm S 4297; assay type: cell-based; settings: Table 7, Strain ID J (Table 6): S. pneumoniae Stpn_Erm S 4297; unit assumed
In short: as §1

[10] = test system: Staphylococcus aureus Stau_29213; assay type: cell-based; settings: Table 7, Strain ID A (Table 6): S. aureus Stau_29213; in µg/mL (unit assumed)
In short: as §1

[11] = test system: Haemophilus influenzae Hain_49247; assay type: cell-based; settings: Table 7, Strain ID M (Table 6): H. influenzae Hain_49247; unit assumed
[12] = test system: Staphylococcus epidermidis Step_f50654; assay type: cell-based; settings: Table 7, Strain ID C (Table 6): S. epidermidis Step_f50654; in µg/mL (unit assumed)
In short: as §1

[13] = test system: Streptococcus pneumoniae Stpn_Mef S 3427; assay type: cell-based; settings: Table 7, Strain ID L (Table 6): S. pneumoniae Stpn_Mef S 3427; in µg/mL (unit assumed)
In short: as §1

[14] = test system: Streptococcus pneumoniae Stpn_Mef 5654; assay type: cell-based; settings: Table 7, Strain ID K (Table 6): S. pneumoniae Stpn_Mef 5654; in µg/mL (unit assumed)
Procedure: as §2, with “4” for “8”
as §3, §4
Following appropriate incubation, the MIC is determined and the MIC is defined as the lowest concentration of the drug that prevented visible growth.
as §2, §5

| SMILES | MIC ([1]; unit assumed) | MIC [9] | MIC [10] | MIC [11] | MIC [12] | MIC [13] | MIC [5] | MIC [6] | MIC [7] | MIC [14] | MIC [1] | MIC [3] | MIC [4] | MIC [8] | further results |
| --- | --- | --- | --- | --- | --- | --- | --- | --- | --- | --- | --- | --- | --- | --- | --- |
| C#C[C@]12OC(=O)N(CCCCn3cnc(-c4ccc(C)nc4)c3)[C@@H]1[C@@H](C)C(=O)[C@H](C)C[C@](C)(OC)[C@H](OC1O[C@H](C)C[C@H](N(C)C)[C@H]1O)[C@@H](C)C(=O)[C@@H](C)C(=O)O[C@@H]2CC (stereo partly drawn) [XXXIII] |  |  |  |  |  |  |  |  |  |  |  |  |  |  | MIC, strain ID G ([1]; strain ID G, broth microdilution): =0.05; MIC, strain ID B [2]: > 50 µg/mL; MIC, strain ID N ([3]; strain ID N, broth microdilution): =0.05; MIC, strain ID M ([4]; strain ID M, broth microdilution): =0.05; MIC, strain ID E ([5]; strain ID E, broth microdilution): 0.1; MIC, strain ID C ([6]; strain ID C, broth microdilution): 0.2; MIC, strain ID P ([7]; strain ID P, broth microdilution, in µg/mL (unit assumed)): 1.56; MIC, strain ID O ([8]; strain ID O, broth microdilution): =0.05 |
| CCC1OC(=O)C(C)C(=O)C(C)C(OC2OC(C)CC(N(C)C)C2O)C(C)(OC)CC(C)C(=O)C(C)C2C1OC(=O)N2CCCOc1ccc(-c2cccnc2)cc1 (stereo not drawn) [Compound 20r] | 0.4 µg/mL (≈ 0.494 µM) | 25 µg/mL (≈ 30.9 µM) | 3.13 | 50 µg/mL (≈ 61.7 µM) | 1.56 | 0.1 | 1.56 | 3.13 | 25 µg/mL (≈ 30.9 µM) | 1.56 |  |  |  |  | MIC ([3]; unit assumed): 0.1 µg/mL (≈ 0.123 µM); MIC ([4]; unit assumed): 0.1 µg/mL (≈ 0.123 µM); MIC ([8]; unit assumed): 0.1 µg/mL (≈ 0.123 µM) |
| CCC1OC(=O)C(C)C(=O)C(C)C(OC2OC(C)CC(N(C)C)C2O)C(C)(OC)CC(C)C(=O)C(C)C2C1OC(=O)N2CCCCc1cc(C)nc2ccccc12 (stereo not drawn) [Compound 20o] |  | 0.1 µg/mL (≈ 0.126 µM) | 0.2 | 3.13 µg/mL (≈ 3.93 µM) | 0.2 | 0.1 | 0.1 | 0.2 | 1.56 µg/mL (≈ 1.96 µM) | 0.2 | =0.05 | =0.05 | =0.05 | =0.05 |  |
| C/C=C/[C@]12OC(=O)N(CCCCn3cnc(-c4cccnc4)c3)[C@@H]1[C@@H](C)C(=O)[C@H](C)C[C@](C)(OC)[C@H](OC1O[C@H](C)C[C@H](N(C)C)[C@H]1O)[C@@H](C)C(=O)[C@@H](C)C(=O)O[C@@H]2CC (stereo partly drawn) [65 (2), (3aS,4R,7R,9R,10R,11S,13R,15R,15aR)-4-ETHYL-11-METHOXY-7,9,11,13,15-PENTAMETHYL-2,6,8,14-TETRAOXO-3a-[(1E)-PROP-1-ENYL]-1-[4-(4-PYRIDIN-3-YL-1H-IMIDAZOL-1-YL)BUTYL]TETRADECAHYDRO-1H-OXACYCLOTETRADECINO[4,3-D][1,3]OXAZOL-10-YL 3,4,6-TRIDEOXY-3-(DIMETHYLAMINO)-D-XYLO-HEXOPYRANOSIDE] | 0.2 µg/mL (≈ 0.239 µM) | 0.4 µg/mL (≈ 0.477 µM) | 3.13 | 25 µg/mL (≈ 29.8 µM) | 3.13 | 0.2 | 0.78 | 3.13 | 0.78 µg/mL (≈ 0.931 µM) | 0.78 |  | =0.05 | =0.05 | =0.05 |  |
| CC[C@H]1OC(=O)[C@H](C)C(=O)[C@H](C)[C@@H](OC2O[C@H](C)C[C@H](N(C)C)[C@H]2O)[C@@](C)(OC)C[C@@H](C)C(=O)[C@H](C)[C@H]2N(CCCC(C)(C)n3cnc(-c4cccnc4)c3)C(=O)O[C@]12CC (stereo partly drawn) [Example 31, (3aS,4R,7R,9R,10R,11S,13R,15R,15aR)-3a,4-diethyl-11-methoxy-7,9,11,13,15-pentamethyl-1-[4-methyl-4-(4-pyridin-3-yl-1H-imidazol-1-yl)pentyl]-2,6,8,14-tetraoxotetradecahydro-2H-oxacyclotetradecino[4,3-d][1,3]oxazol-10-yl-3,4,6-trideoxy-3-(dimethylamino)-D-xylo-hexopyranoside] |  | 0.2 µg/mL (≈ 0.234 µM) | 0.2 | 6.25 µg/mL (≈ 7.32 µM) | 0.4 | 0.2 | 0.2 | 0.4 | 0.4 µg/mL (≈ 0.468 µM) | 0.78 | =0.05 | =0.05 | =0.05 | =0.05 |  |
